# “Also recorded” adds a separate entry of the source. Read-outs that look alike come from different tables or passages of the source.
# Key:
# [1] = biological target: T1, isolated rabbit thoracic aorta (serotonin) (Oryctolagus cuniculus, UniProt G1SYA7); details: for mode of inhibition of serotonin constriction: in words
# T1 construct: isolated rabbit thoracic aorta; from tissue; host or cells: isolated rabbit thoracic aorta
# [2] = tested on: isolated rabbit thoracic aorta (noradrenaline); experiment: inhibition of the constrictive activity of noradrenaline on the isolated rabbit thoracic aorta
# [3] = tested on: isolated rat uterus (serotonin); experiment: inhibition of serotonin-induced contractions of the isolated rat uterus; details: serotonin-induced contractions (serotonin 2.47×10^-8 M where printed)
# isolated rat uterus = experiment: uterotonic activity (isolated rat uterus); details: in words
# [4] = blood pressure and heart rate in pentobarbital-anesthetized normotensive rats; type: in vivo, rat; details: rat, in vivo, iv; normotensive rats, pentobarbital-induced anesthesia; read-out: ED50, decrease of the mean arterial blood pressure
# [5] = tested on: pentobarbital-anesthetized normotensive rats; experiment: as above; type: in vivo, rat; details: 450 μg/kg i.v.; for maximum reduction in carotid artery pressure / reduction in heart rate: vs initial level
# pithed rats = experiment: vasoconstriction / diastolic pressure in pithed rats (Gillespie); type: in vivo, rat; details: vs control
# pupil = experiment: dilatation of the pupil in mice (Pulewka); type: in vivo; details: 5 mg/kg i.p.; in words
# [6] = biological target: T2, 5-HT1A serotoninergic receptor (Homo sapiens, UniProt P08908); experiment: binding at [^3 H] 8-OH-DPAT binding site; details: for affinity to 5-HT1A receptor: [^3 H] 8-OH-DPAT, in words
# T2 sequence (P08908 1-422): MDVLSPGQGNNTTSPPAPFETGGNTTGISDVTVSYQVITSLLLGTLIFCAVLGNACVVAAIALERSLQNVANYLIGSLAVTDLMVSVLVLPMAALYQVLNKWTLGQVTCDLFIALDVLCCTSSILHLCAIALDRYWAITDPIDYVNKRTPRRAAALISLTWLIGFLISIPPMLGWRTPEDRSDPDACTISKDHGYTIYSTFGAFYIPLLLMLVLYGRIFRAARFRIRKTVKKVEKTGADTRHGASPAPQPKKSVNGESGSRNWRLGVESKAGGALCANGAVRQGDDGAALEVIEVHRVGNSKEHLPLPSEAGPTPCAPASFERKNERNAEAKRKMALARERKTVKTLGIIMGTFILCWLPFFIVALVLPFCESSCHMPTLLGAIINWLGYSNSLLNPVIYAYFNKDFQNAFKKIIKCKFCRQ
# Text: (§1) Binding affinities of the compounds of Examples 1
# [7] = biological target: T2, 5-HT1A serotoninergic receptor; experiment: functional test, 5-HT1A serotoninergic receptor; details: in words
# sigma receptor [8] = experiment: binding at [^3 H] DTG binding site; details: in words
# sigma receptor [9] = experiment: functional test, sigma receptor; details: in words
# M1 muscarinic receptor [10] = experiment: binding at [^3 H] pirenzepine binding site; details: in words
# M1 muscarinic receptor [11] = experiment: functional test, M1 muscarinic receptor; details: in words
# [12] = tested on: isolated rabbit vena cava inferior; experiment: venous constriction on the isolated rabbit vena cava inferior; details: 1×10^-7 M; in words
# [13] = tested on: isolated rabbit vena cava (noradrenaline); experiment: inhibition of noradrenaline venous constriction on the isolated rabbit vena cava; details: vs noradrenaline
# [14] = tested on: urethane-anestetized normotensive rats; experiment: adrenaline-induced vasopressoric response in urethane-anesthetized normotensive rats; type: in vivo, rat; details: 450 μg/kg i.v.; adrenaline 10 μg/kg i.v.
# Description: In urethane-anestetized normotensive rats the compound (450 μg/kg, i.v.) intensified the adrenaline (10 μg/kg, i.v.)-induced vasopressoric response.
# 5-HT2 receptor = 5-HT2 receptor (Homo sapiens, UniProt P28223); experiment: biochemical; type: binding; details: for affinity for 5-HT2 receptors: in words
# Text: as §1
# D2 receptor = D2 receptor (Homo sapiens, UniProt P14416); experiment: binding, [^3 H]Raclopride; details: for Ki: D2, [^3 H]Raclopride; for affinity for D2 receptors: in words
# Text: as §1
# D1 receptor = D1 receptor (Homo sapiens, UniProt P21728); experiment: binding, [^3 H]SCH23390
# Text: (§2) Binding affinities of the compounds of Examples 5
# α1 receptor = experiment: binding, [^3 H]Prazosin
# Text: as §2
# D2 receptors [15] = biological target: T3, D2 receptors (Rattus norvegicus, UniProt P61169); experiment: apomorphine-induced locomotion; type: in vivo; details: sc, -45 min., apomorphine 0.4 mg/kg s.c., rats, read-out: ID50, apomorphine-induced locomotion
# T3 construct: from tissue; host or cells: living rats (central nervous system)
# D2 receptors [16] = biological target: T4, D2 receptors (Mus musculus, UniProt P61168); experiment: apomorphine-induced climbing in mice; type: in vivo; details: ip, -30 min., apomorphine 1.5 mg/kg s.c., read-out: ID50, climbing behavior
# T4 construct: from tissue; host or cells: living mice (central nervous system)
# Description: The application of apomorphine in a dose of 1.5 mg/kg s.c. caused a characteristic climbing behavior in mice.
# catalepsy in rats = type: in vivo, rat; details: rat, in vivo, sc; rats
# Description: (§3) The s.c. application of the compounds of Example 5 (0.5 to 16 mg/kg) and of Example 8 (0.125 to 4 mg/kg), respectively, caused catalepsy in rats (the method was described by Morelli and Chiara, Europ. J. Pharmacol. 117, 179-185, 1985).
# rats = experiment: catalepsy in rats; type: in vivo, rat; details: in words
# Description: as §3
# α1 receptors = experiment: noradrenaline-induced lethality in rats; type: in vivo, rat; details: s.c.
# acetylcholine receptors = experiment: oxotremorine-induced tremor in mice; type: in vivo; details: 20 to 70 mg/kg i.p.; oxotremorine 1.5 mg/kg s.c.; in words
# [17] = spontaneous motor activity in mice; type: in vivo; details: mouse, in vivo, ip; mice; read-out: ID50, inhibition of spontaneous motor activity
# mice = experiment: spontaneous motor activity in mice; type: in vivo; details: two models (motor activity and pentobarbital anesthesia); vs haloperidol; in words
# [18] = prolongation of pentobarbital-induced anesthesia in mice; details: mouse, in vivo, ip
# [19] = overall antipsychotic action and side-effect profile (summary statements); type: in vivo; details: in words
# uterus in rats = experiment: blocking of spontaneous uterus contractions in rats; details: Rattus norvegicus; 1000 ng/ml
# Description: At a concentration of 1000 ng/ml it caused a 100% blocking of spontaneous uterus contractions in rats (see Jalon).
# 5-HT2 receptors = biological target: T5, 5-HT2 receptors (Mus musculus, UniProt P35363); experiment: inhibition of the head twitch response after 5-HTP/carbidopa; type: in vivo, mice; details: ip, mice, 5-hydroxytryptophan/carbidopa, read-out: ID50, inhibition of head twitch response
# T5 construct: The head twitch model in mice; from tissue; host or cells: living mice (central nervous system)
# Description: The substance was injected 15 minutes prior to DL-5-HTP. The head twitch was recorded from 30 to 35 minutes after the DL-5-HTP injection (modified method according to Handley and Singh, Br. J. Pharmacol. 86, 297 (1985)).
# The compound was injected 15 minutes prior to L-5-HTP (modified method according to Handley and Singh, Br. J. Pharmacol. 86, 297 (1985)).
# The head twitch model in mice represents an experimental model for determining the hallucinogenic action of a compound (the method was described by Handley and Singh, Br.J.Pharmacol., 86, 297-303, 1985). It is believed that the response is conveyed via the 5-HT2 receptors.
# 5-HT1A receptors [20] = experiment: spontaneous tail-flicks in rats; type: in vivo, rat; details: 0.08 to 0.63 mg/kg s.c. (Example 1); 5.0 mg/kg s.c. (Example 2); in words
# 5-HT1A receptors [21] = experiment: inhibition of 8-OH-DPAT-caused spontaneous tail-flick in rats; type: in vivo, rat; details: in words
# Sequence of 5-HT2 receptor (P28223 whole entry): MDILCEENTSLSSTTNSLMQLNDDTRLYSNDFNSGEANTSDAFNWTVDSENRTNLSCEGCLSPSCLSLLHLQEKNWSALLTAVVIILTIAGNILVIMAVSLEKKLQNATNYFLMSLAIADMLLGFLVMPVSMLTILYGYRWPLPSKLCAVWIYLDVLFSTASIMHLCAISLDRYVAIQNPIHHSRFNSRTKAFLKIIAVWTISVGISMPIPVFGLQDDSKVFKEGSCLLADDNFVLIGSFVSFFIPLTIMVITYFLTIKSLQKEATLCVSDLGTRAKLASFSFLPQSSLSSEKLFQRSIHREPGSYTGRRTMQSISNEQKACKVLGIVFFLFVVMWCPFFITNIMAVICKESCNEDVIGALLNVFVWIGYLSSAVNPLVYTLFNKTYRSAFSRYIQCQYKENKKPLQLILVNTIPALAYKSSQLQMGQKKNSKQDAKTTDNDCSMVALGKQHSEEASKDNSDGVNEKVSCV
# T1 sequence (G1SYA7 entry or part of it): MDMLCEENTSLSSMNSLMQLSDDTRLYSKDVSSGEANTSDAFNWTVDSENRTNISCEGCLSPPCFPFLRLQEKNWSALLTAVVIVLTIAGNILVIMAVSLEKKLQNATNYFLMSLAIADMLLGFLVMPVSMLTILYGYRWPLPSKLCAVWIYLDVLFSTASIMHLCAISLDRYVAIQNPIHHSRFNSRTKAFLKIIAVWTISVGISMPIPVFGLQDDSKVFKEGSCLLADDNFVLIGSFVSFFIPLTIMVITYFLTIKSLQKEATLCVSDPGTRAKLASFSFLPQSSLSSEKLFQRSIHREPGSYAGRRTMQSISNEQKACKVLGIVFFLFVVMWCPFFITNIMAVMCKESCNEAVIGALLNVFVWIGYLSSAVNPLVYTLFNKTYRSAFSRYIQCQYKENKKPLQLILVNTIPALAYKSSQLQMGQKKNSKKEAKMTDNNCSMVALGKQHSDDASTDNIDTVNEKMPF
# Sequence of D2 receptor (P14416 whole entry): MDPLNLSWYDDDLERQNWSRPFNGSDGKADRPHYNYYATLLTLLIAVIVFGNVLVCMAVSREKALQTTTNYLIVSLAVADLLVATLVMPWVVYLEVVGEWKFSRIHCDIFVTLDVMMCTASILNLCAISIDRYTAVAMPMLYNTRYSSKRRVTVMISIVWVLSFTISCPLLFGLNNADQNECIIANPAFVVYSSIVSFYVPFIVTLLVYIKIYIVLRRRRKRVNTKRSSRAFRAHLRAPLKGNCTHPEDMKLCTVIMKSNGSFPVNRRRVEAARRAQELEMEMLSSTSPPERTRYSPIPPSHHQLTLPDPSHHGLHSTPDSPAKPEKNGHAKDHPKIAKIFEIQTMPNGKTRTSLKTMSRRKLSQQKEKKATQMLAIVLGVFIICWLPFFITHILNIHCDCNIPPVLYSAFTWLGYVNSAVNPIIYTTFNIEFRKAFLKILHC
# Sequence of D1 receptor (P21728 whole entry): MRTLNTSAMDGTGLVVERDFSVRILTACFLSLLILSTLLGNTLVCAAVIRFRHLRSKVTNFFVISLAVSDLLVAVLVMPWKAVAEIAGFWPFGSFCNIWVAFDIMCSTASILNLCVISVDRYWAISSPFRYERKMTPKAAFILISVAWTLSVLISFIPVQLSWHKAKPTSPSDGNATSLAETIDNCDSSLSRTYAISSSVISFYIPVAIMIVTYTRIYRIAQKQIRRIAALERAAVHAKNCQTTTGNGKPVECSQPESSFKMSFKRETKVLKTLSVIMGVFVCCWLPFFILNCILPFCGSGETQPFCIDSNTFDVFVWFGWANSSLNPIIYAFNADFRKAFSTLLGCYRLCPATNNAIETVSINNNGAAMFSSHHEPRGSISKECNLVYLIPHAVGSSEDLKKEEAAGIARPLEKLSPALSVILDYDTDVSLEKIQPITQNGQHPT
# T4 sequence (P61168 whole entry): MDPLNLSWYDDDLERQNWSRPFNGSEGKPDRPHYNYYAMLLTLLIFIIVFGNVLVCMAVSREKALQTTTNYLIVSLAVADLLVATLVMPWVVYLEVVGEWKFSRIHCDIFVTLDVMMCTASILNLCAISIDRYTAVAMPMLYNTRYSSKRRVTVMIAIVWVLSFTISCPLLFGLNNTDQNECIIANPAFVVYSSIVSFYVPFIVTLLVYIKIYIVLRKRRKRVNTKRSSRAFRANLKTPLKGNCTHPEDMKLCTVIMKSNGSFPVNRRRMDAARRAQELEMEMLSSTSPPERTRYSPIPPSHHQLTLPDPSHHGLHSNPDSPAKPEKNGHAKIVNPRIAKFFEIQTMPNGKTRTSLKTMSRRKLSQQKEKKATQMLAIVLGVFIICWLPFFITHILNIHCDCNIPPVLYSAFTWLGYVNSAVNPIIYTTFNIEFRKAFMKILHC
# T3 sequence (P61169 whole entry): as the sequence (P61168 whole entry) above, with P29A counted along it
# T5 sequence (P35363 whole entry): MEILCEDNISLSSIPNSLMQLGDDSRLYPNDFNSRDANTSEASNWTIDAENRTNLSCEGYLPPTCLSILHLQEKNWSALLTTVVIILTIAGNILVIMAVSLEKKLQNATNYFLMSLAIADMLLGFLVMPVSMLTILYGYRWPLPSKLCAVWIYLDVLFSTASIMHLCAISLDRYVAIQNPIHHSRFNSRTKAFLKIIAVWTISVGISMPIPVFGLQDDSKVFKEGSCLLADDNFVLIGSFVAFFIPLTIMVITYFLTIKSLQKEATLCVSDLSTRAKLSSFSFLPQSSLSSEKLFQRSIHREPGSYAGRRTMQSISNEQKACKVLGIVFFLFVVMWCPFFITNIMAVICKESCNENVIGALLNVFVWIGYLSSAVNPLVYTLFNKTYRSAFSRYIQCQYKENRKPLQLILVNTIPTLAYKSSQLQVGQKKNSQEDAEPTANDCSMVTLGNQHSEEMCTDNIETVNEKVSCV
structure (smiles),measurement,setting,value
C#CCN(C)C[C@@H]1C=C2c3cccc4[nH]cc(c34)C[C@H]2N(C)C1 [Example 8],Kb,[1],0.741 nM
same,mode of inhibition of serotonin constriction,[1],competitively inhibited
same,mode of inhibition of noradrenaline constriction,[2]; in words,competitively inhibited
same,pA2,[2]; vs noradrenaline,6.39
same,IC50,[3],1.85 nM
same,uterotonic activity,isolated rat uterus,no uterotonic activity
same,ED50,[4],0.37 mg/kg
same,effect on carotid artery pressure,[5]; in words,strong and sustained decrease in carotid artery pressure
same,maximum reduction in carotid artery pressure,[5],20%
same,reduction in heart rate,[5],less than 20%
same,mean increase in diastolic pressure,pithed rats; 450 μg/kg i.v.,20%
same,dilatation of the pupil,pupil,strong dilatation of the pupil
same,affinity to 5-HT1A receptor,[6],possessed affinity
same,functional activity at 5-HT1A,[7],did not indicate any activity
same,affinity to sigma receptor,sigma receptor [8],possessed affinity
same,functional activity at sigma receptor,sigma receptor [9],indicated an antagonistic activity
same,affinity to M1 muscarinic receptor,M1 muscarinic receptor [10],possessed affinity
same,functional activity at M1 muscarinic receptor,M1 muscarinic receptor [11],indicated an antagonistic activity
same,venous constriction,[12],minimal venous constriction
same,pA2,[13],6.63
same,effect on adrenaline-induced vasopressoric response,[14],intensified
same,Ki,5-HT2 receptor,10 nM
same,affinity for 5-HT2 receptors,5-HT2 receptor,high affinity
same,Ki,D2 receptor,3.8 nM
same,affinity for D2 receptors,D2 receptor,high affinity
same,Ki,"D1 receptor; D1, [^3 H]SCH23390",87 nM
same,affinity for D1 receptors,D1 receptor; in words,lower
same,affinity for α1 receptors,α1 receptor; in words,lower
same,Ki,"α1 receptor; α1, [^3 H]Prazosin",245 nM
same,ED50,D2 receptors [15],0.089 mg/kg
same,ED50,D2 receptors [16],0.44 mg/kg
same,ED50,catalepsy in rats,0.29 mg/kg
same,cataleptic action compared with haloperidole,rats,lesser than the action caused by the typical antipsychotic haloperidole
same,"ID50, noradrenaline-induced lethality",α1 receptors,3.75 mg/kg
same,inhibition of oxotremorine-induced tremor,acetylcholine receptors,dose-dependent inhibition
same,ED50,[17],8.4 mg/kg
same,depressant action on the level of CNS,mice,several times lower depressant action on the level of CNS if compared with haloperidol
same,ED50,[18],17.1 mg/kg
same,antipsychotic action,[19],strongest antipsychotic action
same,side effect liability,[19],"lesser degree of probability of the development of extrapyramidal, central depressant and hypotensive side effects"
"C#CCNC(=O)[C@@H]1C=C2c3cccc4[nH]c(Br)c(c34)C[C@H]2N(C)C1 [Example 2, 2-Bromo-9,10-didehydro-N-(2'-propinyl)-6-methylergoline-8β-carboxamide]",mode of inhibition of serotonin constriction,[1],competitively inhibited
same,Kb,"[1]; vs serotonin, read-out: pA2 (converted)",7.41 nM
same,IC50,[3],26.9 nM
same,inhibition at 1 µg/mL,uterus in rats,100%
same,duration of the transient effect,[5],up to 20 minutes
same,maximum reduction in carotid artery pressure,[5],15%
same,reduction in heart rate,[5],5%
same,mean increase of the diastolic pressure,pithed rats; 450 μg/kg i.p.,20%
same,ED50,5-HT2 receptors,8.2 mg/kg
same,dilatation of the pupil,pupil,marked dilatation of the pupil
same,Ki,"[6]; 5-HT1A, [^3 H]8-OH-DPAT",206 nM
same,affinity to 5-HT1A receptor,[6],somewhat lower affinity; also recorded: possessed affinity
same,functional activity at 5-HT1A,[7],did not indicate any activity
same,affinity to sigma receptor,sigma receptor [8],possessed affinity
same,functional activity at sigma receptor,sigma receptor [9],indicated an antagonistic activity
same,Ki,"5-HT2 receptor; 5-HT2, [^3 H]Ketanserin, read-out: Ki",90 nM
same,affinity for 5-HT2 receptors,5-HT2 receptor,high affinity
same,Ki,D2 receptor,44 nM
same,affinity for D2 receptors,D2 receptor,high affinity
same,spontaneous tail-flick,5-HT1A receptors [20],did not cause a spontaneous tail-flick in rats
same,inhibition of 8-OH-DPAT-caused spontaneous tail-flick,"5-HT1A receptors [21]; 0.63 to 5.0 mg/kg s.c., 8-OH-DPAT 2.5 mg/kg s.c.",strongly inhibit the spontaneous tail-flick in rats
same,effect in tail-flick inhibition model compared with buspirone,5-HT1A receptors [21],very similar to that of buspirone
